From patent US10500166B2, “Methods for the treatment of erectile dysfunction using fispemifene” (QUATRX PHARMACEUTICALS, priority 2007, dated 2019)

Experiments:
Assay type in all cases: in vivo, human
estradiol = test: Phase I repeated dose study 101-50202: serum estradiol
From the text: Fispemifene has been studied in two phase I studies in humans—in a single dose and a repeated dose study. Effect of fispemifene on hormone levels was one main focus of the repeated dose study. The phase I repeated dose study (number 101-50202) was a randomized, double-blind, placebo-controlled 28-day dose-escalation study performed in 31 healthy, elderly men, aged 50-68 years. The main objective of the study was to investigate the tolerability, safety and pharmacokinetics of fispemifene after repeated oral doses, but the study focused also on the effects of fispemifene on serum free and total testosterone, estradiol, and other relevant hormones. The fispemifene doses 10, 30, 100 and 300 mg per day and placebo were administered once every morning as capsules containing 10 mg or 100 mg of fispemifene, or placebo.
The variables for safety and tolerability were adverse events, vital signs, 12-lead ECG, clinical laboratory evaluations, physical examination, ultrasound examinations (mammary glands) and inhibin B. For pharmacokinetics, the concentrations of fispemifene and its metabolite(s) were to be evaluated. For pharmacodynamics, serum concentrations of FSH, LH, estradiol, testosterone, SHBG, prolactin, aldosterone, cortisol and TSH before and during treatment were measured and compared with the concentrations in the placebo-group.

[1] = tested on: SHBG (sex hormone-binding globulin); test: Example 3 study in hypogonadal men: serum sex hormone binding globulin (ITT); details: Baseline (Visit 2)
Procedure: (§1) A randomized, double-blind, placebo controlled, parallel-group study of once-daily doses of fispemifene (100, 200, and 300 mg/day) given for 4 weeks was conducted in a population of hypogonadal men. Subjects were required to meet all of the following inclusion criteria at screening and prior to randomization to be eligible for the study:
(§2) There were 77 subjects total. The number of subjects randomized to the 100 mg fispemifene, 200 mg fispemifene, 300 mg fispemifene, and placebo arms were 21, 21, 19, and 16, respectively.
(§3) Subjects were randomly assigned to one of four treatment groups in a 1:1:1:1 ratio: • Treatment A (100 mg): fispemifene 100 mg+placebo+placebo; • Treatment B (200 mg): fispemifene 100 mg+fispemifene 100 mg+placebo; • Treatment C (300 mg): fispemifene 100 mg+fispemifene 100 mg+fispemifene 100 mg; and • Treatment D (Placebo): placebo+placebo+placebo.
(§4) Subjects took one dose (three capsules) of study medication once a day at home for 4 weeks. Capsules were to be taken in the morning immediately after breakfast, with the exception of the morning of the Week 4 visit. Capsules were not to be taken on the morning of the Week 4 visit because trough plasma levels of fispemifene were determined by a blood sample taken at this visit. Each subject was randomly assigned to treatment with one of the 3 different dose regimens of fispemifene or placebo vehicle. Each subject received a 4 week supply of study drug.
(§5) Blood samples were taken from the subjects within 1 week prior to dosing with study drug to establish baseline values; after 2 and 4 weeks of randomization; and 2 weeks after the last dose of study drug. Serum was prepared from those samples and used to determine the mean % change from baseline in total testosterone, free testosterone, SHBG (sex hormone-binding globulin), DHT (dihydrotestosterone), E2 (estradiol), LH (luteinizing hormone), FSH (follicle stimulating hormone), and inhibin B.
(§6) 3. Percent change from baseline in SHBG, DHT, E2, LH, FSH, inhibin B, and testosterone/E2 ratio at Weeks 2, 4, and 6.

E2 (estradiol) = test: Example 3 study in hypogonadal men: serum estradiol (ITT); details: for Estradiol, Max / Estradiol, Mean ± SD / Estradiol, Median / Estradiol, Min: Baseline (Visit 2);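 as to Estradiol, Max: estradiol concentrations in pg/mL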;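 as to Estradiol, Mean ± SD: estradiol concentrations in pg/mL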;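 as to Estradiol, Median: estradiol concentrations in pg/mL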;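 as to Estradiol, Min: estradiol concentrations in pg/mL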
Procedure: as §1, §2, §3, §4, §5, §6

[2] = 100 mg/day, to Week 6 (2 weeks after discontinuation)

## OCCOCCOc1ccc(/C(=C(/CCCl)c2ccccc2)c2ccccc2)cc1 [Fispemifene, (Z)-2-{2-[4-(4-Chloro-1,2-diphenylbut-1-enyl)phenoxy]ethoxy}ethanol]
estradiol; 10 mg/day, Baseline
  Serum estradiol, Mean: 106.2 pmol/L
estradiol; 10 mg/day, Day 8
  Serum estradiol, Mean: 94.7 pmol/L
estradiol; 10 mg/day, Day 15
  Serum estradiol, Mean: 81.7 pmol/L
estradiol; 10 mg/day, Day 22
  Serum estradiol, Mean: 116.6 pmol/L
estradiol; 10 mg/day, Day 28
  Serum estradiol, Mean: 75.0 pmol/L
estradiol; 30 mg/day, Baseline
  Serum estradiol, Mean: 97.8 pmol/L
estradiol; 30 mg/day, Day 8
  Serum estradiol, Mean: 105.6 pmol/L
estradiol; 30 mg/day, Day 15
  Serum estradiol, Mean: 102.4 pmol/L
estradiol; 30 mg/day, Day 22
  Serum estradiol, Mean: 99.6 pmol/L
estradiol; 30 mg/day, Day 28
  Serum estradiol, Mean: 87.0 pmol/L
estradiol; 100 mg/day, Baseline
  Serum estradiol, Mean: 84.3 pmol/L
estradiol; 100 mg/day, Day 8
  Serum estradiol, Mean: 108.3 pmol/L
estradiol; 100 mg/day, Day 15
  Serum estradiol, Mean: 111.5 pmol/L
estradiol; 100 mg/day, Day 22
  Serum estradiol, Mean: 106.3 pmol/L
estradiol; 100 mg/day, Day 28
  Serum estradiol, Mean: 94.5 pmol/L
estradiol; 300 mg/day, Baseline
  Serum estradiol, Mean: 102.5 pmol/L
estradiol; 300 mg/day, Day 8
  Serum estradiol, Mean: 104.0 pmol/L
estradiol; 300 mg/day, Day 15
  Serum estradiol, Mean: 97.8 pmol/L
estradiol; 300 mg/day, Day 22
  Serum estradiol, Mean: 95.5 pmol/L
estradiol; 300 mg/day, Day 28
  Serum estradiol, Mean: 89.7 pmol/L
[1]; 100 mg/day
  Sex Hormone Binding Globulin, Max: 35.0 nmol/L
  Sex Hormone Binding Globulin, Mean ± SD: 18.4 ± 6.96 nmol/L
  Sex Hormone Binding Globulin, Median: 17.0 nmol/L
  Sex Hormone Binding Globulin, Min: 8.5 nmol/L
[1]; 200 mg/day
  Sex Hormone Binding Globulin, Max: 51.0 nmol/L
  Sex Hormone Binding Globulin, Mean ± SD: 19.5 ± 11.12 nmol/L
  Sex Hormone Binding Globulin, Median: 18.0 nmol/L
  Sex Hormone Binding Globulin, Min: 3.7 nmol/L
[1]; 300 mg/day
  Sex Hormone Binding Globulin, Max: 48.0 nmol/L
  Sex Hormone Binding Globulin, Mean ± SD: 20.0 ± 10.28 nmol/L
  Sex Hormone Binding Globulin, Median: 19.0 nmol/L
  Sex Hormone Binding Globulin, Min: 5.6 nmol/L
E2 (estradiol); 100 mg/day
  Estradiol, Max: 34.0 pg/mL
  Estradiol, Mean ± SD: 18.2 ± 6.54 pg/mL
  Estradiol, Median: 18.0 pg/mL
  Estradiol, Min: 10.0 pg/mL
E2 (estradiol); 100 mg/day, to Week 2
  Estradiol, % Change from Baseline, Max: 131%
  Estradiol, % Change from Baseline, Median: 32%
E2 (estradiol); 100 mg/day, to Week 4
  Estradiol, % Change from Baseline, Max: 110%
  Estradiol, % Change from Baseline, Median: 31%
E2 (estradiol); [2]
  Estradiol, % Change from Baseline, Max: 80%
  Estradiol, % Change from Baseline, Median: 13%
E2 (estradiol); 200 mg/day
  Estradiol, Max: 33.0 pg/mL
  Estradiol, Mean ± SD: 19.2 ± 6.23 pg/mL
  Estradiol, Median: 17.0 pg/mL
  Estradiol, Min: 11.0 pg/mL
E2 (estradiol); 200 mg/day, to Week 2
  Estradiol, % Change from Baseline, Max: 171%
